The target of data set [1] is 5-hydroxytryptamine receptor 1A (Homo sapiens, UniProt P08908). The data set can be described thus: Displacement of [3H]-Way100635 from recombinant human 5HT1A receptor stably expressed in CHO cell membranes measured after 90 mins by microbeta scintillation counting method. (Displacement assays read how much labelled ligand stays bound in the presence of the test substance.)

In data set [2] the target is 5-hydroxytryptamine receptor 2A (Homo sapiens, UniProt P28223). In words: Displacement of [3H]-Ketanserin from 5HT2A receptor (unknown origin) measured after 90 mins by microbeta scintillation counting method.
Chain of 5-hydroxytryptamine receptor 2A (P28223 whole entry): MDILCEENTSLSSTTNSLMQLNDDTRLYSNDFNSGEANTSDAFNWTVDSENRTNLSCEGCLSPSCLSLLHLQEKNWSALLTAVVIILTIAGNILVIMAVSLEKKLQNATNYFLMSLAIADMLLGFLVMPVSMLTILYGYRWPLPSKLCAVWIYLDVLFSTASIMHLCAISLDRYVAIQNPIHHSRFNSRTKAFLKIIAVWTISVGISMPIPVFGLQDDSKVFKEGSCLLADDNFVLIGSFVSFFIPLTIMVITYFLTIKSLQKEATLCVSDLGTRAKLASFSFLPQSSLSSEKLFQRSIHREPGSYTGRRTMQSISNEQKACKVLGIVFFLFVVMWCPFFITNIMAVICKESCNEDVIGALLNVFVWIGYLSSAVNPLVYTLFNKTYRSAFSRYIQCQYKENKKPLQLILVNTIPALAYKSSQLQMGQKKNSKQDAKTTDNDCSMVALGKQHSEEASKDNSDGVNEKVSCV
Data set [3] concerns the target 5-hydroxytryptamine receptor 2C (Homo sapiens, UniProt P28335). In words: Displacement of [3H]-Mesulergine from recombinant human 5HT2C receptor expressed in HEK cell membranes measured after 90 mins by microbeta scintillation counting method.
Data set [4] deals with T1, Alpha-1D adrenergic receptor (Homo sapiens, UniProt P25100).
T1 sequence (P25100 whole entry): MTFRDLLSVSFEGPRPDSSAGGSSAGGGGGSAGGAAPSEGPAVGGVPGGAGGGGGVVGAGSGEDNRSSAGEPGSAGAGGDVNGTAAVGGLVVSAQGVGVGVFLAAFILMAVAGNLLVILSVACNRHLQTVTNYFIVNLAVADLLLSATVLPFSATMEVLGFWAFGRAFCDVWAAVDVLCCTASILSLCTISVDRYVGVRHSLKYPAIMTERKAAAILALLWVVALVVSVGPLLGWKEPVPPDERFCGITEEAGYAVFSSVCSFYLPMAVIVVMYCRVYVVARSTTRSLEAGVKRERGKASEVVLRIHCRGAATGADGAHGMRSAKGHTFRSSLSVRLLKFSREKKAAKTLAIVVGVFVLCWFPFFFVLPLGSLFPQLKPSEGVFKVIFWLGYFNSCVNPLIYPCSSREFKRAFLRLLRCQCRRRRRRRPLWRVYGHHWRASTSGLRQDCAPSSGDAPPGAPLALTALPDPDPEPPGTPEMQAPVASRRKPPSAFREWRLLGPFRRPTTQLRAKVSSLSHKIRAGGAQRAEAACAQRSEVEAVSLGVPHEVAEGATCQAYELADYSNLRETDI
In words: Displacement of [3H]-prazosin from recombinant human alpha1D adrenergic receptor measured after 90 mins by microbeta scintillation counting method.

Data set [5] concerns the target T2, Histamine H2 receptor (Homo sapiens, UniProt P25021). In words: Displacement of [125I]-Iodo-aminopotentidine from human histamine H2 receptor expressed in stable HEK cell membranes after 90 mins by microbeta scintillation counting method.
For data set [6], the target named is Muscarinic acetylcholine receptor M4 (Homo sapiens, UniProt P08173). The data set can be described thus: Displacement of [3H]-QNB/[3H]-NMS from human muscarinic M4 receptor expressed in stable CHO cell membranes after 90 mins by microbeta scintillation counting method.
Chain of Muscarinic acetylcholine receptor M4 (P08173 whole entry): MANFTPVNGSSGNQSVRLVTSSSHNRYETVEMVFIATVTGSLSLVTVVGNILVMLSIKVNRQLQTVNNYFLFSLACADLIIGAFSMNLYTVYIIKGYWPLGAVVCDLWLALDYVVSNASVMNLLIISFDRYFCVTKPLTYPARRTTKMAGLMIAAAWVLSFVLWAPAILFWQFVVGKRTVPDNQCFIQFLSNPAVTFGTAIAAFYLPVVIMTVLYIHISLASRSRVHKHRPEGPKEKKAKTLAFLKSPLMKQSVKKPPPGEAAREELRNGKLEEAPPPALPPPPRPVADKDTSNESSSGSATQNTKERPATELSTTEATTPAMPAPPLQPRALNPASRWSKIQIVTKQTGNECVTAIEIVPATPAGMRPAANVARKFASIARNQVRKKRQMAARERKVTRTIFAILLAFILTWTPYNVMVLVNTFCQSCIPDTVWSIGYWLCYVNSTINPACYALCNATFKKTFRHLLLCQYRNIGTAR
For a further data set, the target named is Mu-type opioid receptor (Homo sapiens, UniProt P35372). In words: Displacement of [3H]-DAMGO from recombinant human MOR stably expressed in HEK cell membranes measured after 90 mins by microbeta scintillation counting method.
Chain of Mu-type opioid receptor (P35372 whole entry): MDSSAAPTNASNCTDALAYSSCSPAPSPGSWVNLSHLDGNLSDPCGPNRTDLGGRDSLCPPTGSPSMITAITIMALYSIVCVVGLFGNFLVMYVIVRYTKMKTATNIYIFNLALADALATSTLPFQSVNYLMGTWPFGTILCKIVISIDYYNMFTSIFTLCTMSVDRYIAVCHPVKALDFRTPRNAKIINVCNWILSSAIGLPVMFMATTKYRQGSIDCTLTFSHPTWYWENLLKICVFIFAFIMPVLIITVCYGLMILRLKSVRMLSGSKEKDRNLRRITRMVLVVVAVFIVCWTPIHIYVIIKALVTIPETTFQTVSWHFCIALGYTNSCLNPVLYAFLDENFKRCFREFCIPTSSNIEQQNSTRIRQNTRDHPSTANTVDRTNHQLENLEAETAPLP
The target in another data set is 5HT2B receptor (Homo sapiens, UniProt P41595). The data set can be described thus: Displacement of [3H]-LSD from recombinant human 5HT2B receptor stably expressed in HEK cell membranes at 10 uM measured after 90 mins by microbeta scintillation counting method relative to control. The conditions noted are these: probe [3H]-LSD.
The next data set deals with 5HT5A receptor (Homo sapiens, UniProt P47898). The data set can be described thus: Displacement of [3H]-LSD from recombinant human 5HT5A receptor stably expressed in Flp-In CHO cell membranes at 10 uM measured after 90 mins by microbeta scintillation counting method relative to control. Conditions: probe [3H]-LSD; call rule not given here.
Chain of 5HT5A receptor (P47898 whole entry): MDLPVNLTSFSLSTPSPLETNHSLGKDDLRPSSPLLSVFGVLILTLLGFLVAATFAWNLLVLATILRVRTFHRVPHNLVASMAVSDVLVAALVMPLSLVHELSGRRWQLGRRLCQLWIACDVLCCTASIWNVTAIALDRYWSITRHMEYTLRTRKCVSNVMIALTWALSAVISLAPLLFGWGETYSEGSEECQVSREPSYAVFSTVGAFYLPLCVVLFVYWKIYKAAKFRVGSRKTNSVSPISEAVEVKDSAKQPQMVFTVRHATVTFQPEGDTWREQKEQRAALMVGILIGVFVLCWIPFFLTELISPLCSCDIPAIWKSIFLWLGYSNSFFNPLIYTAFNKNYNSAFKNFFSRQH
Data set [7] concerns the target T3, Alpha-1A adrenergic receptor (Homo sapiens, UniProt P35348).
T3 sequence (P35348 whole entry): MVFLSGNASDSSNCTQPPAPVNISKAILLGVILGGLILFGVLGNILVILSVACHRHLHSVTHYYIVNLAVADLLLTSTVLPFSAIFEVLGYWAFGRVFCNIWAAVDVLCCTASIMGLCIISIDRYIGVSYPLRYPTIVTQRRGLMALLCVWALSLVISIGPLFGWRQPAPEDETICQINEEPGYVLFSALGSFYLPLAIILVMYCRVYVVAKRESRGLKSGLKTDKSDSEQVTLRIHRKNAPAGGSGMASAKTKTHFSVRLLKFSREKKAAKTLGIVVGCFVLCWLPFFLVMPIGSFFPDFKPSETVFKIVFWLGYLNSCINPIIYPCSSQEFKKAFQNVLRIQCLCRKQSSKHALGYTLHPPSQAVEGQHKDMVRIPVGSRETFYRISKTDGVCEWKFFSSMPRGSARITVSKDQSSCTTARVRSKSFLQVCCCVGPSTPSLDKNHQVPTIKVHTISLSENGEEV
The data set can be described thus: Displacement of [3H]-prazosin from recombinant human alpha1A adrenergic receptor at 10 uM measured after 90 mins by microbeta scintillation counting method relative to control. The conditions noted are these: probe [3H]-prazosin.

Data set [8] concerns the target Alpha-2B adrenergic receptor (Homo sapiens, UniProt P18089). In words: Displacement of [3H]-rauwolscine from recombinant human alpha2B adrenergic receptor transiently expressed in HEKT cell membranes at 10 uM measured after 90 mins by microbeta scintillation counting method relative to control. Conditions: probe [3H]-rauwolscine.
In data set [9] the target is Beta-1 adrenergic receptor (Homo sapiens, UniProt P08588). In words: Displacement of [125I]-pindolol from recombinant human beta1 adrenergic receptor expressed in CHO Flp-In cell membranes at 10 uM measured after 90 mins by microbeta scintillation counting method relative to control. Conditions: probe [125I]-pindolol.
Chain of Beta-1 adrenergic receptor (P08588 whole entry): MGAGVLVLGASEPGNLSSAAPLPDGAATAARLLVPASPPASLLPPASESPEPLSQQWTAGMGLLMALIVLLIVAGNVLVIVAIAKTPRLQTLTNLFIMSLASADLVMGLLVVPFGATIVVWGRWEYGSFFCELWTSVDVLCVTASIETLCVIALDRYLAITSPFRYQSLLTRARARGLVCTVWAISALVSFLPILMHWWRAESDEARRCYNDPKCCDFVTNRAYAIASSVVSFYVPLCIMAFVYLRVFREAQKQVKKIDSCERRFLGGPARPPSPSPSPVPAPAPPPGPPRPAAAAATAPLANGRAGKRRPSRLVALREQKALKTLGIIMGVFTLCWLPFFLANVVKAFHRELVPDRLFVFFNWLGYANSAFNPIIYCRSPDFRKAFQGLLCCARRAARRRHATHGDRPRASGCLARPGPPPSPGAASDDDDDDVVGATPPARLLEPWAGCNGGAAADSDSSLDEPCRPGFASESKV
The target of data set [10] is delta opioid receptor (DOR) (Homo sapiens, UniProt P41143). In words: Displacement of [3H]-DADLE from recombinant human DOR stably expressed in HEK cell membranes at 10 uM measured after 90 mins by microbeta scintillation counting method relative to control. The conditions noted are these: HEK cell membranes stably expressing recombinant human DOR, probe [3H]-DADLE.
Chain of delta opioid receptor (DOR) (P41143 whole entry): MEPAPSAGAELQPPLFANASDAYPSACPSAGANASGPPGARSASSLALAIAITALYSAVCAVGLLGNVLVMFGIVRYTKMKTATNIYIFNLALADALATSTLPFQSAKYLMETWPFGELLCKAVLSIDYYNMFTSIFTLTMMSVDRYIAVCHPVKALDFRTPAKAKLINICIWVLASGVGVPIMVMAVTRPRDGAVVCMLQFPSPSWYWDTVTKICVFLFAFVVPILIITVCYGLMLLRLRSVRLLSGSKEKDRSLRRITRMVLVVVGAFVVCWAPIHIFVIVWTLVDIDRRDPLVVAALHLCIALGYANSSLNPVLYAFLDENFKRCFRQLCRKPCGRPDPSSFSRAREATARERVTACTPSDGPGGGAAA

Data set [11] deals with T2, Histamine H2 receptor. In words: Displacement of [125I]-Iodo-aminopotentidine from human histamine H2 receptor expressed in stable HEK cell membranes at 10 uM after 90 mins by microbeta scintillation counting method relative to control. Conditions: probe [125I]-Iodo-aminopotentidine.
The target in the next data set is Histamine H4 receptor (Homo sapiens, UniProt Q9H3N8). In words: Displacement of [3H]-Histamine from recombinant human histamine H4 receptor expressed in HEKT cell membranes at 10 uM measured after 90 mins by microbeta scintillation counting method relative to control. The conditions noted are these: probe [3H]-Histamine.
Chain of Histamine H4 receptor (Q9H3N8 whole entry): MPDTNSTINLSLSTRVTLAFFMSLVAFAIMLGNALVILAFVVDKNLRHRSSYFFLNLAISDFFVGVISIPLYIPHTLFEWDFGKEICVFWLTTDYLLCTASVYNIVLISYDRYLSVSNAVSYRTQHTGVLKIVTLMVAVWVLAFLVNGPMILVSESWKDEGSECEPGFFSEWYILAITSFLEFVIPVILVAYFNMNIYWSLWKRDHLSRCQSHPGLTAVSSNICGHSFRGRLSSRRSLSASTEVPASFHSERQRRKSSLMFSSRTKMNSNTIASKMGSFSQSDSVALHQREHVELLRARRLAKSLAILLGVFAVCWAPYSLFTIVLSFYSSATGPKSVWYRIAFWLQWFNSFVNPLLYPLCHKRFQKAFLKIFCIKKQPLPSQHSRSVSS
In a further data set the target is muscarinic M1 receptor (Homo sapiens, UniProt P11229). In words: Displacement of [3H]-QNB/[3H]-NMS from human muscarinic M1 receptor expressed in stable CHO cell membranes at 10 uM after 90 mins by microbeta scintillation counting method relative to control. The conditions noted are these: probe [3H]-QNB/[3H]-NMS.
Chain of muscarinic M1 receptor (P11229 whole entry): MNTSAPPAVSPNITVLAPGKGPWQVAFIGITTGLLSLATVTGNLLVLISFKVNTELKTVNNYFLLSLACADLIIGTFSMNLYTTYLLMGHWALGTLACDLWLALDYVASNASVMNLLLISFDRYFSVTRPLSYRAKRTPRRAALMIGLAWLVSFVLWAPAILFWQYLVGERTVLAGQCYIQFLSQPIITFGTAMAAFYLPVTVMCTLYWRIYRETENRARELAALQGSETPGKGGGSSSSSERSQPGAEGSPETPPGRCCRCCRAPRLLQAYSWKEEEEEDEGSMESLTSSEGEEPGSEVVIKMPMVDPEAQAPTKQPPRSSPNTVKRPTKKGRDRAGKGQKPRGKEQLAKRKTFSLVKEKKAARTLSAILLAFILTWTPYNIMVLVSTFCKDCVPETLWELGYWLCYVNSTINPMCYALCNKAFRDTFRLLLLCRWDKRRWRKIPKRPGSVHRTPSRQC
In another data set the target is muscarinic M3 receptor (Homo sapiens, UniProt P20309). In words: Displacement of [3H]-QNB/[3H]-NMS from human muscarinic M3 receptor expressed in stable CHO cell membranes at 10 uM after 90 mins by microbeta scintillation counting method relative to control. Conditions: probe [3H]-QNB/[3H]-NMS.
In the next data set the target is muscarinic M5 receptor (Homo sapiens, UniProt P08912). In words: Displacement of [3H]-QNB/[3H]-NMS from human muscarinic M5 receptor expressed in stable CHO cell membranes at 10 uM after 90 mins by microbeta scintillation counting method relative to control. Conditions: probe [3H]-QNB/[3H]-NMS.
Chain of muscarinic M5 receptor (P08912 whole entry): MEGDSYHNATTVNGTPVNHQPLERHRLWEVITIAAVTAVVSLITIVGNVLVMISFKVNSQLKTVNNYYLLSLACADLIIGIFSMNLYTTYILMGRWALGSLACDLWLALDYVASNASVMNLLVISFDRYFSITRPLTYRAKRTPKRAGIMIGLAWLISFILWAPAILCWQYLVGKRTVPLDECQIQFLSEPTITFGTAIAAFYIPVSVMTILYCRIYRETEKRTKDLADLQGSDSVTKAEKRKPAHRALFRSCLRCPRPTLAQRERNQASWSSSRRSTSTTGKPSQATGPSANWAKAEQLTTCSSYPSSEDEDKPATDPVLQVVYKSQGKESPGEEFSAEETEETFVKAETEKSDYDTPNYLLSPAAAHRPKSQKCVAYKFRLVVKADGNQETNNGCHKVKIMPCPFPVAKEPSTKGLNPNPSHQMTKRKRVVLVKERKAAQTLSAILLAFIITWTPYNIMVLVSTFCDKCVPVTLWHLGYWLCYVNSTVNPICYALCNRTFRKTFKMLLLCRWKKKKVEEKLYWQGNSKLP
In a further data set the target is sigma1 receptor (Homo sapiens, UniProt Q99720). The data set can be described thus: Displacement of [3H]-pentazocine from sigma1 receptor (unknown origin) at 10 uM after 90 mins by microbeta scintillation counting method relative to control. The conditions noted are these: probe [3H]-pentazocine.
Chain of sigma1 receptor (Q99720 whole entry): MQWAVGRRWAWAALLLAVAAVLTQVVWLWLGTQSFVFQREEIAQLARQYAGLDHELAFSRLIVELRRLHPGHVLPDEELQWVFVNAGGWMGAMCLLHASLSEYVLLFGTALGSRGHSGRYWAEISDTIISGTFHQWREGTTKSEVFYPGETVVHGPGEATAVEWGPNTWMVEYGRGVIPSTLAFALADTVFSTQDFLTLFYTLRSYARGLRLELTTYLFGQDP

SMILES strings stand for the structures.

T2 sequence (P25021 whole entry): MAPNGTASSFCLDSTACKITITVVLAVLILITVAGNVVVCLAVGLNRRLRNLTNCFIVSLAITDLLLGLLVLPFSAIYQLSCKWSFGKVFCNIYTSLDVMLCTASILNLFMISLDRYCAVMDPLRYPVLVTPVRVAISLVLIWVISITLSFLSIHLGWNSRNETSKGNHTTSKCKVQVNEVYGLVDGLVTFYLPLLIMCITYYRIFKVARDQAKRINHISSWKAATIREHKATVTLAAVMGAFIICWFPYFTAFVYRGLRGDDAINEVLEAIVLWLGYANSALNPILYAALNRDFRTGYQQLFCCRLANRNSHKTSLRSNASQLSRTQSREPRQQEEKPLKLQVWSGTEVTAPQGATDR
Chain of 5-hydroxytryptamine receptor 1A (P08908 whole entry): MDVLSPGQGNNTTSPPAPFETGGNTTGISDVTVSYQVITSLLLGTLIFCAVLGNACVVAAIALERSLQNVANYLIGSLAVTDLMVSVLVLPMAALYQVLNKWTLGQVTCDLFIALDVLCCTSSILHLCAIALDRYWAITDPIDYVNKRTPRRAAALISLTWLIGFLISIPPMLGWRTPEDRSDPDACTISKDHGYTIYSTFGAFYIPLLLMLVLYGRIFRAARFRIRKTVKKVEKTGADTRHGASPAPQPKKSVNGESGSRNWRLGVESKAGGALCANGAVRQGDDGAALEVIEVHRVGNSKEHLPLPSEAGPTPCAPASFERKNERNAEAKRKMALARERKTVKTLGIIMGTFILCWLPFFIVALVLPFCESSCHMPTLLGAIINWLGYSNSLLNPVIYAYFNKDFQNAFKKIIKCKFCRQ

Regarding `CCCN(CC[C@]1(O)C[C@H](NC(=O)c2ccc3ccccc3c2)C1)[C@H]1CCc2nc(N)sc2C1`, the Ki (in general, the equilibrium dissociation constant of an inhibitor or competing ligand from its target) amounted to 708 nM in data set [1]; 2840 nM in data set [2] (read-out: Ki); 762 nM in [3] (read-out: Ki); 1180 nM in data set [4] (read-out: Ki); 224 nM on Histamine H2 receptor [5]; 2280 nM in data set [6] (read-out: Ki). Besides, on Mu-type opioid receptor (read-out: Ki), the Ki came out at 745 nM. Moreover, the inhibition (usually the relative decrease from the control value, in per cent) at […], 10 µM at 5HT2B receptor is > 50%; on 5HT5A receptor, < 50%; in data set [7], < 50%; in data set [8] it was < 50%; in data set [9] it was < 50%; in [10], < 50%. Further, the inhibition at […], 10 µM at Histamine H2 receptor [11] is > 50%; at Histamine H4 receptor it was < 50%; on muscarinic M1 receptor, < 50%; on muscarinic M3 receptor it was < 50%; at muscarinic M5 receptor, > 50%; at sigma1 receptor it was > 50%.
Take `CCCN[C@H]1CCc2nc(N)sc2C1` [PRAMIPEXOLE]: the Ki in [1] was 6510 nM; in [2], “Not Active”; in data set [3], “Not Active”; in data set [4] it was “Not Active”; at Histamine H2 receptor [5] it was 2680 nM; in [6] (cho), “Not Active”. For the same molecule, on Mu-type opioid receptor, the Ki entry is “Not Active”. The inhibition at […], 10 µM at 5HT2B receptor is < 50%; on 5HT5A receptor, > 50%; in data set [7], > 50%; in data set [8], > 50%; in data set [9], < 50%; in data set [10] it was > 50%. Besides, the inhibition at […], 10 µM on Histamine H2 receptor [11] was > 50%; on Histamine H4 receptor, > 50%; on muscarinic M1 receptor it was > 50%; on muscarinic M3 receptor, > 50%; at muscarinic M5 receptor, < 50%; at sigma1 receptor, > 50%.
